According to patent publication US20240067693A1, “POLYPEPTIDES AND USES THEREOF” (MEDIMMUNE LIMITED, priority 2020, published 2024):
Numbered stars: 1 amine (or outer) side, 2 acyl side, 3 side chain; on linkers, the order of the positions; unused ones are H or OH. Bridge positions count the residues as written; N and C are the ends. Square brackets hold non-standard residues; d marks the D form. Side chains are listed from the residue outwards. Peptide text beside a SMILES is read from it. * marks the point of attachment. C18 diacid = O=C(O)CCCCCCCCCCCCCCCCC(=O)*; γGlu = O=C(O)[C@H](CCC(=O)[*:2])N[*:1]; αMeF = C[C@](N)(Cc1ccccc1)C(=O)O; Aib = CC(C)(N)C(=O)O

Legend:
[1] = Thioflavin T fibrillation assay; format: physicochemical; conditions: ThT fibrillation assay; peptide 1 mg/mL in 25 mM sodium acetate buffer pH 4.0; 6 days at 37 °C with shaking; >144 h = no increase
In short: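 Peptides at 1 mg/mL in 25 mM sodium acetate pH 4.0 with ThT (from 0.25 mM stock), incubated 6 days at 37 °C with intermittent orbital shaking at 500–750 rpm. Fluorescence (ex 444/em 480 nm) read every 30 min; value is average time to a rise in baseline-corrected signal.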

[2] = target: T1, human calcitonin receptor (hCTR) (Homo sapiens, UniProt P30988); experiment: cAMP production in 1321N1 cells with stable recombinant expression of human calcitonin receptor (hCTR); format: cell-based; conditions: cAMP, 1321N1 cells, assay buffer with 0.1% BSA; read-out: EC50 (pM) hCTR
T1 construct: expressed in transfected cells
T1 sequence (P30988 25-474): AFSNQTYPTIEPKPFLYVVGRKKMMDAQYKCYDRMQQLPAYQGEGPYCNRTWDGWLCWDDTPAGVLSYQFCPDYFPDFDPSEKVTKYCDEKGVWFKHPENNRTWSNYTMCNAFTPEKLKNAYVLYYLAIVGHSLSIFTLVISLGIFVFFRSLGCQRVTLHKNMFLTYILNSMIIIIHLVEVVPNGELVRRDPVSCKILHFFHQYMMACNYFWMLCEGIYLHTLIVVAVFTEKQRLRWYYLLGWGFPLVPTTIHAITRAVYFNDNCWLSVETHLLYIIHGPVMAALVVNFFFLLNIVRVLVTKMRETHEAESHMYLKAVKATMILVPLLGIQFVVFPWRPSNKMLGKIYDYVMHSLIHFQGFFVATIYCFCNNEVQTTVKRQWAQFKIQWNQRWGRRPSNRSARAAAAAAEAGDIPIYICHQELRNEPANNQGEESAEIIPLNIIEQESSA
In short: (§1)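 Receptor-expressing cells (human receptors in 1321N1, rat receptors in HEK) incubated 30 min at room temperature with peptide in HBSS/HEPES pH 7.4, 0.1% BSA, 0.5 mM IBMX. cAMP read by HTRF; EC50 from 4-parameter fit as % of maximal amylin or calcitonin response.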

[3] = target: T2, human amylin receptor (calcitonin receptor co-expressed with receptor activity modifying protein, RAMP3) (hAMYR3) (Homo sapiens, UniProt O60896+P30988); experiment: cAMP production in 1321N1 cells with stable recombinant expression of human amylin receptor (hAMYR3); format: cell-based; conditions: for Ratio (selectivity hAMYR vs hCTR, ratio of EC50 values at the two receptors): EC50 hCTR / EC50 hAMYR3; for EC50: cAMP, 1321N1 cells, assay buffer with 0.1% BSA, read-out: EC50 (pM) hAMYR3
T2 construct: expressed in transfected cells
T2 sequence (P30988 25-474): T1 sequence (P30988 25-474)
T2 sequence (O60896 24-148 partner): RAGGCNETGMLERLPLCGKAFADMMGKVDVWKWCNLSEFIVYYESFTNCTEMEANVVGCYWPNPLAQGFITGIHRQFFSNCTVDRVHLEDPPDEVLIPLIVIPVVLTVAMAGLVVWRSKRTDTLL
In short: as §1

in vivo = conditions: male, Sprague-Dawley, rat, 20 nmol/kg
[4] = Pharmacokinetic determination via IV and SC administration in Sprague Dawley rats; conditions: male, rat, plasma, 20 nmol/kg

## CC[C@H](C)[C@H](NC(=O)[C@@H]1CCCN1C(=O)CNC(=O)[C@](C)(Cc1ccccc1)NC(=O)[C@H](CC(N)=O)NC(=O)[C@H](CC(N)=O)NC(=O)[C@H](CO)NC(=O)[C@H](CO)NC(=O)[C@H](Cc1c[nH]cn1)NC(=O)[C@@H](NC(=O)[C@H](CC(C)C)NC(=O)[C@H](Cc1ccccc1)NC(=O)[C@H](CC(N)=O)NC(=O)[C@H](C)NC(=O)[C@H](CC(C)C)NC(=O)[C@H](CCCNC(=N)N)NC(=O)[C@H](CCC(N)=O)NC(=O)[C@@H](NC(=O)[C@H](C)NC(=O)[C@@H]1CSSC[C@H](NC(=O)[C@@H](N)CCCCNC(=O)CC[C@H](NC(=O)CC[C@H](NC(=O)CCCCCCCCCCCCCCCCC(=O)O)C(=O)O)C(=O)O)C(=O)N[C@@H](CC(N)=O)C(=O)N[C@@H]([C@@H](C)O)C(=O)N[C@@H](C)C(=O)N[C@@H]([C@@H](C)O)C(=O)N1)[C@@H](C)O)C(C)C)C(=O)N[C@@H](CC(C)C)C(=O)N1CCC[C@H]1C(=O)N1CCC[C@H]1C(=O)N[C@H](C(=O)N[C@@H](CC(N)=O)C(=O)N[C@H](C(=O)NCC(=O)N[C@@H](CO)C(=O)N[C@@H](CCCNC(=N)N)C(=O)N[C@H](C(=O)N[C@@H](Cc1ccc(O)cc1)C(N)=O)[C@@H](C)O)C(C)C)[C@@H](C)O [Peptide 21, K(γE-γE-C18diacid)[CNTATC]ATQRLANFLVHSSNN(αMePhe)GPILPPTNVGSRTY-amide] (H-K([γGlu-γGlu-C18 diacid])CNTATCATQRLANFLVHSSNN[αMeF]GPILPPTNVGSRTY-NH2; disulfide 2-7; N-terminus assumed)
[1]
  Time taken to detect increase in fluorescence intensity: >144 h
[2]
  EC50: 3410 pM
[3]
  Ratio (selectivity hAMYR vs hCTR, ratio of EC50 values at the two receptors): 25
  EC50: 136 pM
In vivo; iv
  half-life: 8 h
In vivo; sc
  half-life: 8.1 h

## CC[C@H](C)[C@H](NC(=O)[C@@H]1CCCN1C(=O)CNC(=O)[C@](C)(Cc1ccccc1)NC(=O)[C@H](CC(N)=O)NC(=O)[C@H](CC(N)=O)NC(=O)[C@H](CO)NC(=O)[C@H](CO)NC(=O)[C@H](Cc1c[nH]cn1)NC(=O)[C@@H](NC(=O)[C@H](CC(C)C)NC(=O)[C@H](Cc1ccccc1)NC(=O)[C@H](CC(N)=O)NC(=O)[C@H](C)NC(=O)[C@H](CC(C)C)NC(=O)[C@H](CCCNC(=N)N)NC(=O)[C@H](CCC(N)=O)NC(=O)[C@@H](NC(=O)[C@H](C)NC(=O)[C@@H]1CSSC[C@H](NC(=O)[C@@H](N)CCCCNC(=O)CC[C@H](NC(=O)CCCCCCCCCCCCCCCCC(=O)O)C(=O)O)C(=O)N[C@@H](CC(N)=O)C(=O)N[C@@H]([C@@H](C)O)C(=O)N[C@@H](C)C(=O)N[C@@H]([C@@H](C)O)C(=O)N1)[C@@H](C)O)C(C)C)C(=O)N[C@@H](CC(C)C)C(=O)N1CCC[C@H]1C(=O)N1CCC[C@H]1C(=O)N[C@H](C(=O)N[C@@H](CCCNC(=N)N)C(=O)N[C@H](C(=O)NCC(=O)N[C@@H](CO)C(=O)N[C@@H](CC(N)=O)C(=O)N[C@H](C(=O)N[C@@H](Cc1ccc(O)cc1)C(N)=O)[C@@H](C)O)C(C)C)[C@@H](C)O [Peptide 25, K(γE-C18diacid)[CNTATC]ATQRLANFLVHSSNN(αMePhe)GPILPPTRVGSNTY-amide] (H-K([γGlu-C18 diacid])CNTATCATQRLANFLVHSSNN[αMeF]GPILPPTRVGSNTY-NH2; disulfide 2-7)
[1]
  Time taken to detect increase in fluorescence intensity: >144 h
[2]
  EC50: 1250 pM
[3]
  Ratio (selectivity hAMYR vs hCTR, ratio of EC50 values at the two receptors): 12
  EC50: 105 pM
In vivo; iv
  half-life: 6.9 h
In vivo; sc
  half-life: 8 h

## CC[C@H](C)[C@H](NC(=O)[C@@H]1CCCN1C(=O)CNC(=O)[C@H](Cc1ccccc1)NC(=O)[C@H](CC(N)=O)NC(=O)C(C)(C)NC(=O)[C@H](CO)NC(=O)[C@H](CO)NC(=O)[C@H](Cc1c[nH]cn1)NC(=O)C(C)(C)NC(=O)[C@H](CC(C)C)NC(=O)[C@H](Cc1ccccc1)NC(=O)[C@H](CC(N)=O)NC(=O)[C@H](C)NC(=O)[C@H](CC(C)C)NC(=O)[C@H](CCCNC(=N)N)NC(=O)[C@H](CCC(N)=O)NC(=O)[C@@H](NC(=O)[C@H](C)NC(=O)[C@@H]1CSSC[C@H](NC(=O)[C@H](CCCCN)NC(=O)[C@@H](N)CCCCNC(=O)CC[C@H](NC(=O)CCCCCCCCCCCCCCCCC(=O)O)C(=O)O)C(=O)N[C@@H](CC(N)=O)C(=O)N[C@@H]([C@@H](C)O)C(=O)N[C@@H](C)C(=O)N[C@@H]([C@@H](C)O)C(=O)N1)[C@@H](C)O)C(=O)N[C@@H](CC(C)C)C(=O)N1CCC[C@H]1C(=O)N1CCC[C@H]1C(=O)N[C@H](C(=O)N[C@@H](CC(N)=O)C(=O)N[C@H](C(=O)NCC(=O)N[C@@H](CO)C(=O)N[C@@H](CC(N)=O)C(=O)N[C@H](C(=O)N[C@@H](Cc1ccc(O)cc1)C(N)=O)[C@@H](C)O)C(C)C)[C@@H](C)O [Peptide 36, K(γE-C18diacid)K[CNTATC]ATQRLANFL(Aib)HSS(Aib)NFGPILPPTNVGSNTY-amide] (H-K([γGlu-C18 diacid])KCNTATCATQRLANFL[Aib]HSS[Aib]NFGPILPPTNVGSNTY-NH2; disulfide 3-8; N-terminus assumed)
[4]; iv
  half-life: 7.2 h
[4]; sc
  half-life: 11.6 h
[2]
  EC50: 6390 pM
[3]
  Ratio (selectivity hAMYR vs hCTR, ratio of EC50 values at the two receptors): 19
  EC50: 331 pM

## CC[C@H](C)[C@H](NC(=O)[C@@H]1CCCN1C(=O)CNC(=O)[C@H](Cc1ccccc1)NC(=O)[C@H](CC(N)=O)NC(=O)C(C)(C)NC(=O)[C@H](CO)NC(=O)[C@H](CO)NC(=O)[C@H](Cc1c[nH]cn1)NC(=O)[C@@H](NC(=O)[C@H](CC(C)C)NC(=O)[C@H](Cc1ccccc1)NC(=O)[C@H](CC(N)=O)NC(=O)[C@H](C)NC(=O)[C@H](CC(C)C)NC(=O)[C@H](CCCNC(=N)N)NC(=O)[C@H](CCC(N)=O)NC(=O)[C@@H](NC(=O)[C@H](C)NC(=O)[C@@H]1CSSC[C@H](NC(=O)[C@H](CCCCN)NC(=O)[C@@H](N)CCCCNC(=O)CC[C@H](NC(=O)CC[C@H](NC(=O)CCCCCCCCCCCCCCCCC(=O)O)C(=O)O)C(=O)O)C(=O)N[C@@H](CC(N)=O)C(=O)N[C@@H]([C@@H](C)O)C(=O)N[C@@H](C)C(=O)N[C@@H]([C@@H](C)O)C(=O)N1)[C@@H](C)O)C(C)C)C(=O)N[C@@H](CC(C)C)C(=O)N1CCC[C@H]1C(=O)N1CCC[C@H]1C(=O)N[C@H](C(=O)N[C@@H](CCCNC(=N)N)C(=O)N[C@H](C(=O)NCC(=O)N[C@@H](CO)C(=O)N[C@@H](CC(N)=O)C(=O)N[C@H](C(=O)N[C@@H](Cc1ccc(O)cc1)C(N)=O)[C@@H](C)O)C(C)C)[C@@H](C)O [Peptide 70, K(γE-γE-C18diacid)K[CNTATC]ATQRLANFLVHSS(Aib)NFGPILPPTRVGSNTY-amide] (H-K([γGlu-γGlu-C18 diacid])KCNTATCATQRLANFLVHSS[Aib]NFGPILPPTRVGSNTY-NH2; disulfide 3-8; N-terminus assumed)
[1]
  Time taken to detect increase in fluorescence intensity: >144 h
[2]
  EC50: 5400 pM
[3]
  Ratio (selectivity hAMYR vs hCTR, ratio of EC50 values at the two receptors): 23
  EC50: 235 pM
In vivo; iv
  half-life: 10.3 h
In vivo; sc
  half-life: 12.5 h

## CC[C@H](C)[C@H](NC(=O)[C@@H]1CCCN1C(=O)CNC(=O)[C@H](Cc1ccccc1)NC(=O)[C@H](CC(N)=O)NC(=O)C(C)(C)NC(=O)[C@H](CO)NC(=O)[C@H](CO)NC(=O)[C@H](Cc1c[nH]cn1)NC(=O)[C@@H](NC(=O)[C@H](CC(C)C)NC(=O)[C@H](Cc1ccccc1)NC(=O)[C@H](CC(N)=O)NC(=O)[C@H](C)NC(=O)[C@H](CC(C)C)NC(=O)[C@H](CCCNC(=N)N)NC(=O)[C@H](CCC(N)=O)NC(=O)[C@@H](NC(=O)[C@H](C)NC(=O)[C@@H]1CSSC[C@H](NC(=O)[C@H](CCCCN)NC(=O)[C@@H](N)CCCCNC(=O)CC[C@H](NC(=O)CCCCCCCCCCCCCCCCC(=O)O)C(=O)O)C(=O)N[C@@H](CC(N)=O)C(=O)N[C@@H]([C@@H](C)O)C(=O)N[C@@H](C)C(=O)N[C@@H]([C@@H](C)O)C(=O)N1)[C@@H](C)O)C(C)C)C(=O)N[C@@H](CC(C)C)C(=O)N1CCC[C@H]1C(=O)N1CCC[C@H]1C(=O)N[C@H](C(=O)NC(C)(C)C(=O)N[C@H](C(=O)NCC(=O)N[C@@H](CO)C(=O)N[C@@H](CC(N)=O)C(=O)N[C@H](C(=O)N[C@@H](Cc1ccc(O)cc1)C(N)=O)[C@@H](C)O)C(C)C)[C@@H](C)O [Peptide 80, K(γE-C18diacid)K[CNTATC]ATQRLANFLVHSS(Aib)NFGPILPPT(Aib)VGSNTY-amide] (H-K([γGlu-C18 diacid])KCNTATCATQRLANFLVHSS[Aib]NFGPILPPT[Aib]VGSNTY-NH2; disulfide 3-8; N-terminus assumed)
[1]
  Time taken to detect increase in fluorescence intensity: >144 h
[2]
  EC50: 2970 pM
[3]
  Ratio (selectivity hAMYR vs hCTR, ratio of EC50 values at the two receptors): 7
  EC50: 407 pM
In vivo; iv
  half-life: 9.7 h
In vivo; sc
  half-life: 9.9 h
